Entries after “also recorded” stand apart in the source; their conditions may differ. Values belong to the molecule of their own block, whether it stands above or below them.
What was measured:
[1] = pH stability of IHOG in amination reaction solution (without microbial cells); format: physicochemical
Procedure: [I] pH Stability of IHOG in Amination Reaction Solution
In order to examine the stability of IHOG in the IHOG amination solution, change of IHOG amounts with time in an IHOG amination solution was measured without adding the microbial cells. A test tube containing 1 mL of the reaction solution composed of 100 mM potassium phosphate buffer (pH 8.3), 300 mM (±)-IHOG, 600 mM DL-Ala and 1 mM pyridoxal-5′-phosphate was shaken at 37° C. for 40 hours, to perform the reaction. […] This is presumed to be attributed to the decomposition of IHOG into indole-3-pyruvic acid and pyruvic acid and the cyclization of IHOG.

[2] = pH stability of IHOG in buffer; format: physicochemical; settings: 0.54 mM IHOG, 40 mM potassium phosphate buffer, 35° C.
Procedure: [II] pH Stability of IHOG in Buffer
The survival rate of IHOG (0.54 mM) was measured in 40 mM potassium phosphate buffer at different pH. The storage temperature was adjusted to 35° C.

[3] = stability in strongly acidic or strongly alkaline solution to be treated; format: physicochemical; settings: for stability in strongly acidic solution: strongly acidic region
Text: The value of pH in the solution to be treated may be 2 to 12, more preferably 7 to 11 and particularly preferably 8 to 9.
When the solution to be treated is strongly acidic or alkaline and contains IHOG, IHOG is decomposed and can not be recovered. […] This cyclization is an irreversible reaction, and therefore, it is difficult to regenerate the cyclized IHOG to reuse for the monatin production.

[4] = cited from earlier work; for sweetness potency: relative to sucrose

stability in strongly acidic solution [3]: easily cyclized
SMILES: O=C(O)C(=O)CC(O)(Cc1c[nH]c2ccccc12)C(=O)O (racemic) [IHOG, 4-(indol-3-ylmethyl)-4-hydroxy-2-oxoglutaric acid]
Survival rate of IHOG ([1]; 100 mM potassium phosphate buffer pH 8.3, 300 mM (±)-IHOG, 600 mM DL-Ala, 1 mM pyridoxal-5'-phosphate, 37° C., after 16 hours): 81%
Survival rate of IHOG ([1]; same amination solution pH 8.3, 37° C., after 24 hours): 70%
Survival rate of IHOG ([1]; same amination solution pH 8.3, 37° C., after 40 hours): 57%
Survival rate of IHOG ([2]; pH 7, 2 hr): 97.4%
Survival rate of IHOG ([2]; pH 7, 7 hr): 90.0%
Survival rate of IHOG ([2]; pH 7, 24 hr): 68.4%
Survival rate of IHOG ([2]; pH 7, 48 hr): 45.6%
Survival rate of IHOG ([2]; pH 8, 2 hr): 100.6%
Survival rate of IHOG ([2]; pH 8, 7 hr): 100.1%
Survival rate of IHOG ([2]; pH 8, 24 hr): 96.4%
Survival rate of IHOG ([2]; pH 8, 48 hr): 89.6%
Survival rate of IHOG ([2]; pH 9, 2 hr): 100.6%
Survival rate of IHOG ([2]; pH 9, 7 hr): 101.1%
Survival rate of IHOG ([2]; pH 9, 24 hr): 99.0%
Survival rate of IHOG ([2]; pH 9, 48 hr): 94.4%
Survival rate of IHOG ([2]; pH 10, 2 hr): 97.0%
Survival rate of IHOG ([2]; pH 10, 7 hr): 96.8%
Survival rate of IHOG ([2]; pH 10, 24 hr): 94.2%
Survival rate of IHOG ([2]; pH 10, 48 hr): 90.8%
Survival rate of IHOG ([2]; pH 11, 2 hr): 95.6%
Survival rate of IHOG ([2]; pH 11, 7 hr): 90.7%
Survival rate of IHOG ([2]; pH 11, 24 hr): 74.8%
Survival rate of IHOG ([2]; pH 11, 48 hr): 59.3%
stability in strongly alkaline solution ([3]; strongly alkaline solution): easily decomposed into indole-3-pyruvic acid and pyruvic acid spontaneously

SMILES: N[C@H](C[C@](O)(Cc1c[nH]c2ccccc12)C(=O)O)C(=O)O (single isomer, unassigned) [(2R, 4R)-isomer]
sweetness rank among four optical isomers of monatin ([4]; comparison of the monatin isomers, listed as (2R, 4R)-monatin): the isomer having the highest sweetness among four optical isomers of monatin; also recorded: highest sweetness potency among monatin isomers
sweetness potency [4]: hundreds of times to thousands of times stronger than sucrose

SMILES: N[C@H](C[C@@](O)(Cc1c[nH]c2ccccc12)C(=O)O)C(=O)O (single isomer, unassigned) [(2R, 4S)-isomer]
sweetness potency [4]: hundreds of times to thousands of times stronger than sucrose

SMILES: N[C@@H](C[C@](O)(Cc1c[nH]c2ccccc12)C(=O)O)C(=O)O (single isomer, unassigned) [(2S, 4R)-isomer]
sweetness potency [4]: hundreds of times to thousands of times stronger than sucrose

SMILES: NC(CC(O)(Cc1c[nH]c2ccccc12)C(=O)O)C(=O)O (single isomer, unassigned) [(2S, 4S)-isomer]
sweetness potency [4]: hundreds of times to thousands of times stronger than sucrose

SMILES: NC(CC(O)(Cc1c[nH]c2ccccc12)C(=O)O)C(=O)O (centres unmarked) [Monatin]
stability in strongly acidic solution [3]: partially decomposed into lactam and lactone
sweetness potency [4]: dozens to thousands of times stronger than that of sucrose

Reference: patent US7534590B2, “Method for producing monatin” (AJINOMOTO Co., Inc., priority 2003, dated 2009)
